Patent US20260200976A1, “PEPTIDE HAVING ACTIVITY OF IMPROVING STATE OF SKIN, AND USE THEREOF” (CAREGEN CO., LTD., priority 2022, published 2026)

Columns and labels:
HaCaT cells [1] = experiment: Inhibition of apoptosis induced by ultraviolet rays, MTT survival rate, HaCaT; assay type: cell-based; settings: 50 μM or 100 μM peptide, 15 m J/cm2 ultraviolet rays, FIG. 7
Protocol: (§1) In this example, the aim was to confirm the effect of the peptide according to an example on the inhibition of apoptosis or cell recovery of skin cells induced by ultraviolet rays, by evaluating the change in survival rate of skin cells whose apoptosis was induced by ultraviolet irradiation.
(§2) Specifically, NIH3T3 cells or HaCaT cells were seeded in a 96-well plate at a density of 1×10^4 cells/well and cultured for 24 hours. Next, the cells were washed once with serum-free DMEM media, and 50 μM or 100 μM of the peptide consisting of an amino acid sequence of SEQ ID NO: 1 was dispensed into 200 μL of the medium. The culture medium dispensed with the peptide was cultured in a CO2 incubator at 37° C. for 1 hour, transferred to an e-tube, mixed with 100 ul of PBS, and dispensed into a well plate. Next, using a UV irradiator (VILBER LOURMAT, Cat No.: 3102-BSU, France), 6 J/cm2 ultraviolet rays were irradiated to NIH3T3 cells, and […] ultraviolet rays were irradiated to HaCaT cells. Next, PBS in the well plate was removed, MTT (Sigma, Cat. No.: M2003, USA) solution was dispensed into each well at 0.5 mg/ml, and cultured in a CO2 incubator at 37° C. for […]. Next, the absorbance of the culture was measured at 540 nm using a microplate reader (Molecular Devices, USA). […]

sirtuin-1 (SIRT-1) = experiment: Expression of skin barrier factor SIRT-1, RT-PCR in HaCaT cells; assay type: cell-based; settings: 50 μM or 1000 μM peptide, 24 hours, FIG. 4 and FIG. 5
Protocol: (§3) In this example, the aim was to confirm the effect of the peptides according to an example on strengthening the skin barrier, by evaluating the expression levels of sirtuin-1 (SIRT-1) or aquaporin-3 (AQP3).
(§4) Specifically, HaCaT cells were seeded in a 6-well plate at a density of 3×10^5 cells/well and cultured for 24 hours. Next, the cells were washed once with serum-free DMEM media, and 50 μM or 1000 μM of a peptide consisting of an amino acid sequence of SEQ ID NO: 1 was dispensed into 1 mL of the serum-free media, and cultured in a CO2 incubator at 37° C. for 24 hours. Next, the culture was washed twice with PBS, and RNA was isolated from the culture using easy blue (iNtRON, Cat. No.: 17061, Korea). Next, using an RT kit (Enzynomics, Cat. NO.: RT200, Korea), the isolated RNA was reverse transcribed to synthesize the respective cDNA. Next, using the synthesized 1 μg cDNA, primers for SIRT-1 or AQP3, and a PCR kit (Enzynomics, Cat. No.: P581T, Korea), polymerase chain reaction (PCR) was performed. Meanwhile, in this example, an untreated group was used as a control group, and a group to which EGF was added was used as a positive control group, the nucleotide sequences of the primers used in this example are shown in Table 3 below.

NIH3T3 cells [2] = experiment: Reduction of reactive oxygen species increased by ultraviolet rays, DCF-DA flow cytometry, NIH3T3; assay type: cell-based, mouse; settings: 50 μM or 1000 μM peptide, 6 J/cm2 ultraviolet rays, 24 hours, FL1 fluorescence, FIG. 8
Protocol: (§5) In this example, the aim was to confirm the effect of the peptide according to an embodiment on the antioxidant effect in damaged skin, by evaluating the change in the level of reactive oxygen species in skin cells increased by ultraviolet irradiation.
(§6) Specifically, NIH3T3 cells or HaCaT cells were seeded in a 6-well plate at a density of 5×10^5 cells/well and cultured for 24 hours. Next, the cells were washed once with serum-free DMEM media, and 50 μM or 1000 μM of a peptide consisting of an amino acid sequence of SEQ ID NO: 1 was dispensed into 1 mL of the serum-free media, and cultured in a CO2 incubator at 37° C. for […]. Next, the above culture was transferred to an e-tube, mixed with 1 ml of PBS, and dispensed into a well plate. Next, using a UV irradiator (VILBER LOURMAT, Cat No.: 3102-BSU, France), 6 J/cm2 ultraviolet rays were irradiated to NIH3T3 cells, and 15 J/cm2 ultraviolet rays were irradiated to HaCaT cells. Next, the PBS in the well plate was removed, 900 μL of the culture medium in which the peptides were dispensed was added, and the plate was cultured in a CO2 incubator at 37° C. for 24 hours. […] After washing the centrifuged cells with PBS, FL1 fluorescence values were measured through flow cytometry (FACS, BD, USA). […]

elastin = experiment: Expression of extracellular matrix component elastin, RT-PCR in NIH3T3 cells; assay type: cell-based, mouse; settings: 10 μM or 50 μM peptide, 24 hours, FIG. 2 and FIG. 3
Protocol: (§7) In this example, the aim was to confirm the effect of the peptide according to an example on improving endogenous skin aging, including improvement of wrinkles and enhancement of elasticity, etc., by evaluating the expression levels of collagen type 1 (Col1a1), fibronectin, and elastin, which are known components of the dermis.
(§8) Specifically, NIH3T3 cells were seeded in a 6-well plate at a density of 3×10^5 cells/well and cultured for 24 hours. Next, the cells were washed once with serum-free DMEM media, and 10 μM or 50 μM of a peptide consisting of an amino acid sequence of SEQ ID NO: 1 was dispensed into 1 mL of the serum-free media, and cultured in a CO2 incubator at 37° C. for 24 hours. Next, the culture was washed twice with PBS, and RNA was isolated from the culture using easy blue (iNtRON, Cat. No.: 17061, Korea). Next, using an RT kit (Enzynomics, Cat. NO.: RT200, Korea), the isolated RNA was reverse transcribed to synthesize the respective cDNA. Next, using the synthesized 1 μg cDNA, primers for Col1a1, fibronectin, or elastin, and a PCR kit (Enzynomics, Cat. No.: P581T, Korea), polymerase chain reaction (PCR) was performed. Meanwhile, in this example, an untreated group was used as a control group, and a group to which TGF-β1 was added was used as a positive control group, the nucleotide sequences of the primers used in this example are shown in Table 2 below.

NIH3T3 cells [3] = experiment: Inhibition of apoptosis induced by ultraviolet rays, MTT survival rate, NIH3T3; assay type: cell-based, mouse; settings: 50 μM or 100 μM peptide, 6 J/cm2 ultraviolet rays, FIG. 6
Protocol: as §1, §2

fibronectin = experiment: Expression of extracellular matrix component fibronectin, RT-PCR in NIH3T3 cells; assay type: cell-based, mouse; settings: 10 μM or 50 μM peptide, 24 hours, FIG. 2 and FIG. 3
Protocol: as §7, §8

HaCaT cells [4] = experiment: Reduction of reactive oxygen species increased by ultraviolet rays, DCF-DA flow cytometry, HaCaT; assay type: cell-based; settings: 50 μM or 1000 μM peptide, 15 J/cm2 ultraviolet rays, 24 hours, FL1 fluorescence, FIG. 9
Protocol: as §5, §6

collagen type 1 (Col1a1) = experiment: Expression of extracellular matrix component Col1a1, RT-PCR in NIH3T3 cells; assay type: cell-based, mouse; settings: 10 μM or 50 μM peptide, 24 hours, FIG. 2 and FIG. 3
Protocol: as §7, §8

NIH3T3 cells [5] = experiment: Proliferation of skin cells, MTT survival rate; assay type: cell-based, mouse; settings: 50 μM or 100 μM peptide, 72 hours, FIG. 1
Protocol: In this example, the aim was to confirm the effect of a peptide according to an example on proliferation of skin cells, by evaluating changes in survival rate of NIH3T3 cells, which are mouse fibroblasts.
Specifically, NIH3T3 cells were seeded in a […] at a density of 1×10^4 cells/well and cultured for 24 hours. Next, the cells were washed once with serum-free DMEM media, and 50 μM or 100 μM of a peptide consisting of an amino acid sequence of SEQ ID NO: 1 was dispensed into 200 μL of the serum-free media, and cultured in a CO2 incubator at 37° C. for 72 hours. Next, the culture was washed twice with PBS, and MTT solution was dispensed into each well at a concentration of 0.5 mg/ml. Next, it was shaded from light and cultured in a CO2 incubator at 37° C. for 4 hours, and the absorbance at 540 nm was measured using a microplate reader (Molecular Devices, USA).

aquaporin-3 (AQP3) = experiment: Expression of skin barrier factor AQP3, RT-PCR in HaCaT cells; assay type: cell-based; settings: 50 μM or 1000 μM peptide, 24 hours, FIG. 4 and FIG. 5
Protocol: as §3, §4

## EVVDI [SEQ ID NO: 1]
HaCaT cells [1]
  cell survival rate of keratinocytes reduced by ultraviolet irradiation: restored
sirtuin-1 (SIRT-1)
  expression of SIRT-1: increased
NIH3T3 cells [2]
  level of reactive oxygen species in fibroblasts increased by ultraviolet irradiation: reduced
elastin
  expression of elastin: increased
NIH3T3 cells [3]
  cell survival rate of fibroblasts reduced by ultraviolet irradiation: restored
fibronectin
  expression of fibronectin: increased
HaCaT cells [4]
  level of reactive oxygen species in keratinocytes increased by ultraviolet irradiation: reduced
Collagen type 1 (Col1a1)
  expression of Col1a1: increased
NIH3T3 cells [5]
  proliferation of fibroblasts (cell survival rate): promoted
aquaporin-3 (AQP3)
  expression of AQP3: increased
